Source: patent US9260425B2 (Genetech, Inc., priority 2011, dated 2016)

Each compound was assayed against Pim-1 (Homo sapiens (Human), UniProt P11309) (assay: Pim kinase binding activity assay (Example 901), PIM-1 enzyme, Caliper microfluidic peptide phosphorylation). Conditions: 20 pM PIM-1, 10 μM ATP, 1 μM FAM-peptide, 90 minutes at room temperature.
Sequence of Pim-1 (P11309 whole entry): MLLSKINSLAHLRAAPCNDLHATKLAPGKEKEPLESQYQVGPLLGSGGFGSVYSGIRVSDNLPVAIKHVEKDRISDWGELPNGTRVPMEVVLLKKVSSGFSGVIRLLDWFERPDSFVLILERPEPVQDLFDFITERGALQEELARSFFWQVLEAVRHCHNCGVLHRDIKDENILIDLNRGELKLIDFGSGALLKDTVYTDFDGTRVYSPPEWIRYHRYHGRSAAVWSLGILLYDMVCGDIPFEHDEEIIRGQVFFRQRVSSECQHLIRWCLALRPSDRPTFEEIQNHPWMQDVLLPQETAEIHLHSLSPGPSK
Format: biochemical
Procedure: Pim Kinase Binding Activity
A fluorescent-labeled Pim-specific peptide substrate, was custom synthesized by American Peptide Company (Sunnyvale, Calif.). Reaction Buffer contained 10 mM HEPES, pH 7.2, 10 mM MgCl2, 0.01% Tween 20, 2 mM DTT. Termination Buffer contained 190 mM HEPES, pH 7.2, 0.015% Brij-35, 0.2% Coating Reagent 3 (Caliper Life Sciences, Hopkinton, Mass.), 20 mM EDTA. Separation Buffer contained 100 mM HEPES, pH 7.2, 0.015% Brij-35, 0.1% Coating Reagent 3, 1:200 Coating Reagent 8 (Caliper Life Sciences, Hopkinton, Mass.), 10 mM EDTA and 5% DMSO.
PIM reactions were carried out in a final volume of 10 μL per well in a 384-well plate. A standard enzymatic reaction, initiated by the addition of 5 μL 2×ATP and test compound to 5 μL of 2× enzyme and FAM-peptide, contained 20 pM PIM-1, 50 pM PIM-2, or 55 pM PIM-3, 1 μM FAM-peptide, and 10 μM ATP, in Reaction Buffer. After 90 minutes of incubation at room temperature, the phosphorylation reaction was stopped by the addition of 10 μL Termination Buffer. The product and substrate in each independent reaction were separated on a 12-sipper microfluidic chip (Caliper Life Sciences, Hopkinton, Mass.) run on a Caliper LC3000® (Caliper Life Sciences, Hopkinton, Mass.). The separation of product and substrate was optimized by choosing voltages and pressure using Caliper's Optimizer software (Hopkinton, Mass.). […] The product and substrate fluorophore were excited at 488 nm and detected at 530 nm. Substrate conversion was calculated from the electropherogram using HTS Well Analyzer software (Caliper Life Sciences, Hopkinton, Mass.). Ki values for the test compound were calculated.
With `O[C@@H]1CCN(c2nc(-c3n[nH]c4cnc(-c5cccnc5)cc34)ccc2Br)C1` [Example 293, (R)-1-(3-bromo-6-(5-(pyridin-3-yl)-1H-pyrazolo[3,4-c]pyridin-3-yl)pyridin-2-yl)pyrrolidin-3-ol] the Ki was 0.412 nM.
`CCn1cc(-c2cc3c(-c4cccc(N5CCNCC(CO)C5)n4)n[nH]c3cn2)cn1` (centres unmarked) [Example 511, (1-(6-(5-(1-ethyl-1H-pyrazol-4-yl)-1H-pyrazolo[3,4-c]pyridin-3-yl)pyridin-2-yl)-1,4-diazepan-6-yl)methanol] was tested, and the Ki was 0.016 nM.
`NC1CCN(Cc2n[nH]c3cnc(-c4cn[nH]c4)cc23)CC1` [Example 108, l-((5-(1H-pyrazol-4-yl)-1H-pyrazolo[3,4-c]pyridin-3-yl)methyl)piperidin-4-amine] was tested, and the Ki was 1100 nM.
Compound `Cn1cc(-c2cc3c(-c4cnn(C)c4)n[nH]c3cn2)cn1` [Example 163, 3,5-bis(1-methyl-1H-pyrazol-4-yl)-1H-pyrazolo[3,4-c]pyridine] has a Ki of 1.92 nM.
`CCn1cc(-c2cc3c(-c4cccc(N5CCC[C@@H](N)C5)n4)n[nH]c3cn2)cn1` [Example 285, (R)-1-(6-(5-(1-ethyl-1H-pyrazol-4-yl)-1H-pyrazolo[3,4-c]pyridin-3-yl)pyridin-2-yl)piperidin-3-amine] showed a Ki of 0.0473 nM.
Compound `CCn1cc(-c2cc3c(-c4cccc(N5CCN(C(C)=O)CC5)n4)n[nH]c3cn2)cn1` [Example 472, 1-(4-(6-(5-(1-ethyl-1H-pyrazol-4-yl)-1H-pyrazolo[3,4-c]pyridin-3-yl)pyridin-2-yl)piperazin-1-yl)ethanone] has a Ki of 0.107 nM.
`NCC[C@@H]1CCCN(c2cccc(-c3n[nH]c4cnc(-c5cccnc5)cc34)n2)C1` [Example 242, (S)-2-(1-(6-(5-(pyridin-3-yl)-1H-pyrazolo[3,4-c]pyridin-3-yl)pyridin-2-yl)piperidin-3-yl)ethanamine] showed a Ki of 0.03 nM.
With `O=C1CN(c2cc3c(-c4cccc(N5CCNCC5)n4)n[nH]c3cn2)CCN1` [Example 335, 4-(3-(6-(piperazin-1-yl)pyridin-2-yl)-1H-pyrazolo[3,4-c]pyridin-5-yl)piperazin-2-one] the Ki was 12.6 nM.
`c1cc(-c2n[nH]c3cnc(-c4cncs4)cc23)nc(N2CCCCC2)c1` [Example 358, 5-(3-(6-(piperidin-1-yl)pyridin-2-yl)-1H-pyrazolo[3,4-c]pyridin-5-yl)thiazole] was tested, and the Ki was 1.22 nM.
In the case of `Cc1n[nH]c2cnc(-c3cn[nH]c3)cc12` [Example 102, 3-methyl-5-(1H-pyrazol-4-yl)-1H-pyrazolo[3,4-c]pyridine], the Ki is reported as 302 nM.
With `c1cncc(-c2cc3c(-c4cccnc4)n[nH]c3cn2)c1` [Example 176, 3,5-di(pyridin-3-yl)-1H-pyrazolo[3,4-c]pyridine] the Ki was 6.46 nM.
`Cc1ccc(-c2n[nH]c3cnc(-c4cccnc4)cc23)nc1N1CC[C@@H](O)C1` [Example 306, (R)-1-(3-methyl-6-(5-(pyridin-3-yl)-1H-pyrazolo[3,4-c]pyridin-3-yl)pyridin-2-yl)pyrrolidin-3-ol] gave a Ki of 0.22 nM.
For `CS(=O)(=O)c1cncc(-c2cc3c(-c4cccc(N5CCNCC5)n4)n[nH]c3cn2)c1` [Example 470, 5-(5-(methylsulfonyl)pyridin-3-yl)-3-(6-(piperazin-1-yl)pyridin-2-yl)-1H-pyrazolo[3,4-c]pyridine], the Ki was 0.049 nM.
`c1cncc(-c2cc3c(CNC4CCNCC4)n[nH]c3cn2)c1` [Example 109, N-((5-(pyridin-3-yl)-1H-pyrazolo[3,4-c]pyridin-3-yl)methyl)piperidin-4-amine] gave a Ki of 3800 nM.
Compound `N[C@H]1CCCN(c2cncc(-c3cc4c(-c5ccccc5F)n[nH]c4cn3)c2)C1` [Example 180, (S)-1-(5-(3-(2-fluorophenyl)-1H-pyrazolo[3,4-c]pyridin-5-yl)pyridin-3-yl)piperidin-3-amine] has a Ki of 0.264 nM.
With `c1ccc(-c2n[nH]c3cnc(-c4cn[nH]c4)cc23)cc1` [Example 137, 3-phenyl-5-(1H-pyrazol-4-yl)-1H-pyrazolo[3,4-c]pyridine] the Ki was 4.61 nM.
`NC1CCN(c2cncc(-c3cc4c(-c5ccccc5F)n[nH]c4cn3)c2)CC1` [Example 157, 1-(5-(3-(2-fluorophenyl)-1H-pyrazolo[3,4-c]pyridin-5-yl)pyridin-3-yl)piperidin-4-amine] gave a Ki of 1.31 nM.
Compound `CN1CCN(c2cc3c(-c4cccc(N5CCNCC5)n4)n[nH]c3cn2)CC1=O` [Example 223, 1-methyl-4-(3-(6-(piperazin-1-yl)pyridin-2-yl)-1H-pyrazolo[3,4-c]pyridin-5-yl)piperazin-2-one] has a Ki of 38.5 nM.
`Cc1ccc(-c2n[nH]c3cnc(-c4cnn(C)c4)cc23)nc1N1CCN(CCS(C)(=O)=O)C(C)(C)C1` [Example 428, 3-(6-(3,3-dimethyl-4-(2-(methylsulfonyl)ethyl)piperazin-1-yl)-5-methylpyridin-2-yl)-5-(1-methyl-1H-pyrazol-4-yl)-1H-pyrazolo[3,4-c]pyridine] was tested, and the Ki was 0.112 nM.
Work on `N[C@H]1CCCC(Nc2cccc(-c3n[nH]c4cnc(-c5cccnc5)cc34)n2)C1` (stereo in doubt) [Example 245, (1S,3S)—N1-(6-(5-(pyridin-3-yl)-1H-pyrazolo[3,4-c]pyridin-3-yl)pyridin-2-yl)cyclohexane-1,3-diamine] yielded a Ki of 0.0079 nM.
For `CC(O)c1cncc(-c2cc3c(-c4cccc(N5CCNCC5)n4)n[nH]c3cn2)c1` (centres unmarked) [Example 483, 1-(5-(3-(6-(piperazin-1-yl)pyridin-2-yl)-1H-pyrazolo[3,4-c]pyridin-5-yl)pyridin-3-yl)ethanol], the Ki was 0.027 nM.
Work on `NC1CCN(C(=O)C2CCN(c3n[nH]c4cnc(-c5cccnc5)cc34)C2=O)CC1` (centres unmarked) [Example 325, 3-(4-aminopiperidine-1-carbonyl)-1-(5-(pyridin-3-yl)-1H-pyrazolo[3,4-c]pyridin-3-yl)pyrrolidin-2-one] yielded a Ki of 106 nM.
`NC(=O)Cn1cc(-c2cc3c(-c4cccc(F)n4)n[nH]c3cn2)cn1` [Example 178, 2-(4-(3-(6-fluoropyridin-2-yl)-1H-pyrazolo[3,4-c]pyridin-5-yl)-1H-pyrazol-1-yl)acetamide] showed a Ki of 17.6 nM.
For `CCn1cncc(-c2cc3c(-c4cccc(N5CCNCC5)n4)n[nH]c3cn2)c1=O` [Example 515, 3-ethyl-5-(3-(6-(piperazin-1-yl)pyridin-2-yl)-1H-pyrazolo[3,4-c]pyridin-5-yl)pyrimidin-4(3H)-one], the Ki was 0.015 nM.
Work on `Cc1ccc(-c2n[nH]c3cnc(-c4cnn(C)c4)cc23)nc1N1CCC[C@@H](O)C1` [Example 418, (R)-1-(3-methyl-6-(5-(1-methyl-1H-pyrazol-4-yl)-1H-pyrazolo[3,4-c]pyridin-3-yl)pyridin-2-yl)piperidin-3-ol] yielded a Ki of 0.11 nM.
With `Cc1n[nH]c2cnc(-c3cncc(F)c3)cc12` [Example 123, 5-(5-fluoropyridin-3-yl)-3-methyl-1H-pyrazolo[3,4-c]pyridine] the Ki was 737 nM.
Work on `CN1CCN(c2n[nH]c3cnc(-c4cccnc4)cc23)C1=O` [Example 254, 1-methyl-3-(5-(pyridin-3-yl)-1H-pyrazolo[3,4-c]pyridin-3-yl)imidazolidin-2-one] yielded a Ki of 18.5 nM.
Compound `FC(F)(F)Cn1cc(-c2cc3c(-c4cccc(N5CCNCC5)n4)n[nH]c3cn2)cn1` [Example 488, 3-(6-(piperazin-1-yl)pyridin-2-yl)-5-(1-(2,2,2-trifluoroethyl)-1H-pyrazol-4-yl)-1H-pyrazolo[3,4-c]pyridine] has a Ki of 0.022 nM.
For `Cc1ccc(-c2cc3c(-c4cccc(N5CCNCC5)n4)n[nH]c3cn2)cn1` [Example 367], the Ki was 0.217 nM.
